{
  "source": "patent US11744269B2",
  "about": "“Vegetable and fruit wash formulation and uses thereof” (priority 2020, dated 2023)",
  "key": {"[1]": {"test_system": "Staphylococcus aureus ATCC 6538", "assay": "Zone of Inhibition Assay for Staphylococcus aureus ATCC 6538", "assay_type": "cell-based", "description": "(§1) The anti-microbial efficacy of VFW composition is evaluated by finding its zone of inhibition against Staphylococcus Aureus, Escherichia coli, Candida Albicans and Aspergillus Niger and compared with zone of inhibition of standard antibiotics known to be very potent in eliminating the subject microorganism.\nas §1, with “albicans” for “Albicans”, “niger” for “Niger”\nStaphylococcus aureus is a gram-positive, round-shaped bacterium found as dominant genera on the surfaces of vegetables and fruits. The assay was performed for the culture of Staphylococcus aureus ATCC 6538. Ciplox is known to be very effective in eliminating this strain. It was used as standard antibiotic."}, "[2]": {"test_system": "crown rot disease in Banana", "assay": "Crown rotting evaluation of bananas washed in industrial set-up (banana plantation)", "conditions": "bananas soaked 30 minutes maximum in 2% VFW solution in water or NaClO solution in water", "description": "As crown rot progresses, fruits like banana begins to soften and blacken and induces early ripening of fruits.\nThe crown-rot and fruit blackening studies are conducted to determine the efficacy of the Vegetable and Fruit Wash to protect the fruits from the so-called disease and also from premature ripening. This study is also conducted to determine the efficacy of the present invention in prolonging the life of the fruits, i.e. in increasing the shelf life of the fruits.\nA batch of bananas is washed using 2% of Vegetable and Fruit Wash solution in water. The bananas are soaked in the solution for 30 minutes maximum, rinsed, dried and packed and are observed after 2 weeks of washing and after 4 weeks of washing post-delivery and ripening. Another batch of bananas are washed using Sodium Hypochlorite (NaClO) solution in water as per the industry standard washing procedure. The bananas are soaked in the solution for 30 minutes maximum, rinsed, dried and packed. They are observed after 2 weeks of washing and after 4 weeks of washing post delivery and ripening."}, "[3]": {"test_system": "Escherichia coli 8739", "assay": "Zone of Inhibition Assay for Escherichia coli 8739", "assay_type": "cell-based", "description": "as §1\nas §1, with “albicans” for “Albicans”, “niger” for “Niger”\n20-30% of food-poisoning outbreaks linked to disease causing strains of the bacterium Escherichia coli are caused by people eating contaminated vegetables. The assay was performed for the culture of Escherichia coli 8739. Gentamicin is known to be very effective in eliminating this strain and is used as standard antibiotic."}, "[4]": {"test_system": "Candida albicans 10231", "assay": "Zone of Inhibition Assay for Candida albicans 10231", "assay_type": "cell-based", "description": "Candida albicans is opportunistic pathogenic yeast found to have growth on fruits rich in sugar content like bananas, dates, grapes, mango, and dried fruit. The zone of inhibition assay is performed for the culture of Candida albicans 10231."}},
  "data": [
    {"molecule": "O=C(O)c1cn(C2CC2)c2cc(N3CCNCC3)c(F)cc2c1=O", "note": "[Ciplox]", "values": [
      {"measurement": "Zone of Inhibition (mm)", "setting": "[1]", "result": 27.64, "unit": "mm"}
    ]},
    {"molecule": "OCl", "note": "[NaClO, Sodium Hypochlorite]", "values": [
      {"measurement": "Number of Rotten Crowns 2 weeks after Washing", "setting": "[2]", "result": 1},
      {"measurement": "Number of Rotten Crowns 4 weeks after Washing", "setting": "[2]", "result": 3},
      {"measurement": "Number of Rotten Crowns after Ripening", "setting": "[2]", "result": 5}
    ]},
    {"molecule": "Gentamicin", "values": [
      {"measurement": "Zone of Inhibition (mm)", "setting": "[3]", "result": 24.54, "unit": "mm"}
    ]},
    {"molecule": "Zinc pyrithione [ZPTO]", "values": [
      {"measurement": "Zone of Inhibition (mm)", "setting": "[4]", "result": 24.37, "unit": "mm"}
    ]}
  ]
}
